These results are taken from US9212182B2, “Bicyclic sulfonamide compounds as sodium channel inhibitors” (AMGEN INC., priority 2013, dated 2015).

pIC50: −log10 of the molar value. Like-named read-outs stand apart in the source and are kept apart here. Where only a bound is given, the exact number is not on record here.

For orientation: pIC50 means the IC50 on a negative log10 scale, so that one unit is a factor of ten.

For one series, the target named is Nav 1.5 (Homo sapiens (Human), UniProt Q14524). Description: in-vitro Nav 1.5 PX (IC50). As to conditions: read-out: Nav 1.5 PX IC50.
The target in the next series is Nav 1.7 (Homo sapiens (Human), UniProt Q15858). Description: in-vitro Nav 1.7 PX (IC50). It counts as cell-based.
Where [1] appears, read: in-vitro Nav 1.5 PX data (PatchXpress).

Nav 1.7, sequence (Q15858 whole entry): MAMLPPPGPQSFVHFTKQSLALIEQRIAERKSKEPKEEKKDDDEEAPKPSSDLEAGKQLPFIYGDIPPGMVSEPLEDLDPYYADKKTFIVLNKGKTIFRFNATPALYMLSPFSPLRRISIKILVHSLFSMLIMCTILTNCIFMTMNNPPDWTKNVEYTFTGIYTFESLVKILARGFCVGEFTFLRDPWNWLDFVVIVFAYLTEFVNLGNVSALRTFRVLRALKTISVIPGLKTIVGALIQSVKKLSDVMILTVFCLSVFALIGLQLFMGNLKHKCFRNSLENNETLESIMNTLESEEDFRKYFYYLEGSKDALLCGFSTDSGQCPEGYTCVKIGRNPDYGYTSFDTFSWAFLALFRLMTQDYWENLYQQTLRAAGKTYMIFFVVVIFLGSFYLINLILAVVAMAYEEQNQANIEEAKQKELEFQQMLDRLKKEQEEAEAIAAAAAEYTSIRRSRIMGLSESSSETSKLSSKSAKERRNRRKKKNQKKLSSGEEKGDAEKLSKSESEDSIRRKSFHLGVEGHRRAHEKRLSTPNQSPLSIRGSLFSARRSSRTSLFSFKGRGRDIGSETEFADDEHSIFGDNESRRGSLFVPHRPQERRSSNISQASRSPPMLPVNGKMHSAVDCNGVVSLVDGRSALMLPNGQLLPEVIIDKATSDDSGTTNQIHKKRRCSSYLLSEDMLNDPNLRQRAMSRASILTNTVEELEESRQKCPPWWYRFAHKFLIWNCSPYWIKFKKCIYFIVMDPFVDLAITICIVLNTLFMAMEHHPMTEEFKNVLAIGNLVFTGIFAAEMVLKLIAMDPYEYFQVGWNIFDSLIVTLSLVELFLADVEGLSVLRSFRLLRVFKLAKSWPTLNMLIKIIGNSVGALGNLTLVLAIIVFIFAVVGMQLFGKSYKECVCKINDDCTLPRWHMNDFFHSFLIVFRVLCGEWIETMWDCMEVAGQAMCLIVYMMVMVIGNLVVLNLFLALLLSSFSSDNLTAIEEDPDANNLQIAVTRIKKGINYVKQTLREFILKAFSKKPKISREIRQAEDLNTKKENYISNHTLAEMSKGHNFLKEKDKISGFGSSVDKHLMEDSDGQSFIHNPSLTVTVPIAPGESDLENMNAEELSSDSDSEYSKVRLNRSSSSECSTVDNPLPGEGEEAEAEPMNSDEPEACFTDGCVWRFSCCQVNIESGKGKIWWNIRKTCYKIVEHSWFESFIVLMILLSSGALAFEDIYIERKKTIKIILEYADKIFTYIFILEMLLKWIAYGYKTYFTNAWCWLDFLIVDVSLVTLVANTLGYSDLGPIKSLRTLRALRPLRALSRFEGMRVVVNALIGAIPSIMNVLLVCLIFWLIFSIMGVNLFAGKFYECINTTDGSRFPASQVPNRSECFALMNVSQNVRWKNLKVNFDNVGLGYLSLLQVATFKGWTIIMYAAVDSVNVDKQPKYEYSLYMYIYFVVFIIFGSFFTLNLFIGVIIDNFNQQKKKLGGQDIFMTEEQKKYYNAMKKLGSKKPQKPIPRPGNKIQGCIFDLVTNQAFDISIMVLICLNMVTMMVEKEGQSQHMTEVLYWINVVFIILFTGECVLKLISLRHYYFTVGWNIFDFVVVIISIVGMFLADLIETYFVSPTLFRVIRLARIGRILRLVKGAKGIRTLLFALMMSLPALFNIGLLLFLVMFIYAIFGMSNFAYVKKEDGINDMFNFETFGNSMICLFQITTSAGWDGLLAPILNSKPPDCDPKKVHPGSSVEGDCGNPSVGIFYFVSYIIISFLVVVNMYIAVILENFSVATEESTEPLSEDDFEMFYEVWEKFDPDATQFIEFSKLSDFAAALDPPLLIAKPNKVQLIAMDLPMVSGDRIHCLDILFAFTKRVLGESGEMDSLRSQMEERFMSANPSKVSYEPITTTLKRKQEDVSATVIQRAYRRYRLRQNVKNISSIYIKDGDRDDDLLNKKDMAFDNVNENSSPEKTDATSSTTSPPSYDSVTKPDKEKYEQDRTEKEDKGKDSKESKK
Nav 1.5, sequence (Q14524 whole entry): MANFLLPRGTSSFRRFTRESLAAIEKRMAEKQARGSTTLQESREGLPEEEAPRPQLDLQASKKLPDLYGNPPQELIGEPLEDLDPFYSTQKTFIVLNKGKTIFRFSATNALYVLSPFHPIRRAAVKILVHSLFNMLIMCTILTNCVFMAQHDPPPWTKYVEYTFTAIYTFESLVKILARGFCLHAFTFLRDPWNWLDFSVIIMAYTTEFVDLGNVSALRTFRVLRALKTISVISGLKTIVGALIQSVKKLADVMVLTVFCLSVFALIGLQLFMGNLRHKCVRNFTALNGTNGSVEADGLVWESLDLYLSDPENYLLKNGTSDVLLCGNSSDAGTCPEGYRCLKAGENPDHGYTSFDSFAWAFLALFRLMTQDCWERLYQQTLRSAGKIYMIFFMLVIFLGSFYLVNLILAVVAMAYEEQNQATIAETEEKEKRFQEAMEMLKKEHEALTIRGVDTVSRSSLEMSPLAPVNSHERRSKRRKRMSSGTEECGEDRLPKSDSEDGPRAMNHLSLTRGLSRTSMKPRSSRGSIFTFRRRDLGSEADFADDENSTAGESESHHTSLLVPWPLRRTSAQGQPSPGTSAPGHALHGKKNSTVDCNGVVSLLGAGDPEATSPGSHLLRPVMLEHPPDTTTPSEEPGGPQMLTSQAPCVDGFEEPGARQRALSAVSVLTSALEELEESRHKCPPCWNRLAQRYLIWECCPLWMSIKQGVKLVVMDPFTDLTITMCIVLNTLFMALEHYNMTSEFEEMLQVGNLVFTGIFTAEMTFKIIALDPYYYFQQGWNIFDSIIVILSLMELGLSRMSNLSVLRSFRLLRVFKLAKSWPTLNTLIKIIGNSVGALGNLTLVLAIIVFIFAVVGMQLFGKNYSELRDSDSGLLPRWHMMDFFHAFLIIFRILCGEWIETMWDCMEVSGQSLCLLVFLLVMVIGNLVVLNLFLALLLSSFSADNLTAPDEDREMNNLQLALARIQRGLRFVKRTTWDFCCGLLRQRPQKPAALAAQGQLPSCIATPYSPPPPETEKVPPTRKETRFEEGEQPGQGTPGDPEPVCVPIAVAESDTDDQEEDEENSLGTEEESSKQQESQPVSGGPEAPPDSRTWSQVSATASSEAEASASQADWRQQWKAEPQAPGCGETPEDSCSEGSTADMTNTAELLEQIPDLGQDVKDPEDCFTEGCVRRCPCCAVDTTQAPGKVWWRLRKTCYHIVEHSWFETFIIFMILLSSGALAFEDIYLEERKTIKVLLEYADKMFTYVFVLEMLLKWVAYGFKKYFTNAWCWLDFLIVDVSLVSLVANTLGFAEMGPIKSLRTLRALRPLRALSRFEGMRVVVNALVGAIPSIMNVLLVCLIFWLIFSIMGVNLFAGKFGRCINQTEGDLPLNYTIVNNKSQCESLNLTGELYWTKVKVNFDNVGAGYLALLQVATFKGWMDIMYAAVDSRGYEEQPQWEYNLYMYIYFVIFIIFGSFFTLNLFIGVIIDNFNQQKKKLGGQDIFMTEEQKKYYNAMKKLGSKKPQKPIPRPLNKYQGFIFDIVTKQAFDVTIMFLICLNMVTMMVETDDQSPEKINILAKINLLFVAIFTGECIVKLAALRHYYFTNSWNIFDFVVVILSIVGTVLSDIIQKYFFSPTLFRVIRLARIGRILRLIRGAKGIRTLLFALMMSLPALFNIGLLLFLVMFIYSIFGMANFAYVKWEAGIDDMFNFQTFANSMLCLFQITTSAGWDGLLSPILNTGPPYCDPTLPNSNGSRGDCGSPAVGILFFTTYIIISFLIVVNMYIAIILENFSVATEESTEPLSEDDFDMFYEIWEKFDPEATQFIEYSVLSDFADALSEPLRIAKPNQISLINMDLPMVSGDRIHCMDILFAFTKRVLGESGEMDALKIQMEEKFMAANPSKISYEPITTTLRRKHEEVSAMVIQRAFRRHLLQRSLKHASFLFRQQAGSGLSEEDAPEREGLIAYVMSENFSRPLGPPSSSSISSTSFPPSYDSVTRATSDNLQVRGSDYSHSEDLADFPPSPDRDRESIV

Regarding `COc1cc(-c2cccc(F)c2)c(Cl)cc1-n1c(=O)ccc2cc(S(=O)(=O)Nc3ccncn3)ccc21` (atropisomer, axis not shown; (P)) [Example 465, (P)-1-(2-chloro-3′-fluoro-5-methoxy-[1,1′-biphenyl]-4-yl)-2-oxo-N-(pyrimidin-4-yl)-1,2-dihydroquinoline-6-sulfonamide], the pIC50 on Nav 1.5 was under 4.52.

Turning to `COc1cc(-c2cc(OC)c(-n3c(=O)ccc4cc(S(=O)(=O)Nc5cccnn5)ccc43)cc2F)ccc1Cl` (atropisomer, axis not shown; (P)) [Example 628, (P)-1-(4′-chloro-2-fluoro-3′,5-dimethoxy-4-biphenylyl)-2-oxo-N-3-pyridazinyl-1,2-dihydro-6-quinolinesulfonamide], the negative logarithm of the IC50 (pIC50) on Nav 1.5 (setting [1]) is under 5.00.

In the case of `COc1cc(-c2cc(OC)c(-n3c(=O)ccc4cc(S(=O)(=O)Nc5ncccn5)ccc43)cc2F)ccc1Cl` (atropisomer, axis not shown; (P)) [Example 685, (P)-1-(4′-chloro-2-fluoro-3′,5-dimethoxy-4-biphenylyl)-2-oxo-N-2-pyrimidinyl-1,2-dihydro-6-quinolinesulfonamide], on Nav 1.5 (setting [1]), the pIC50 is under 5.00.

On to `O=c1ccc2cc(S(=O)(=O)Nc3cccnn3)ccc2n1-c1ccc(-c2cc(F)cc(F)c2)cc1C1CC1` [Example 1042, 1-(3-cyclopropyl-3′,5′-difluoro-4-biphenylyl)-2-oxo-N-3-pyridazinyl-1,2-dihydro-6-quinolinesulfonamide], for which the pIC50 at Nav 1.7 (in-vitro Nav 1.7 PX data (PatchXpress)) was 6.71.

`COc1cc(-c2cccc(C(F)(F)F)c2)c(F)cc1-n1c(=O)ccc2cc(S(=O)(=O)[N-][n+]3ccccc3)ccc21` [Example 817, ((1-(2-fluoro-5-methoxy-3′-(trifluoromethyl)-4-biphenylyl)-2-oxo-1,2-dihydro-6-quinolinyl)sulfonyl)(1-pyridiniumyl)azanide] gave a pIC50 against Nav 1.7 (in-vitro Nav 1.7 PX data) of 5.34.

As to `COc1cc(-c2ccc(Cl)c(F)c2)c(F)cc1-n1c(=O)ccc2cc(S(=O)(=O)Nc3ccon3)ccc21` (atropisomer, axis not shown; (M)) [Example 504, (M)-1-(4′-chloro-2,3′-difluoro-5-methoxy-4-biphenylyl)-N-3-isoxazolyl-2-oxo-1,2-dihydro-6-quinolinesulfonamide], the pIC50 at Nav 1.7 (in-vitro PatchXpress (PX)) is 8.10.

In the case of `COc1cc(-c2ccc(F)c(C)c2)c(F)cc1-n1c(=O)ccc2cc(S(=O)(=O)Nc3ncccn3)ccc21` [Example 940, 1-(2,4′-difluoro-5-methoxy-3′-methyl-4-biphenylyl)-2-oxo-N-2-pyrimidinyl-1,2-dihydro-6-quinolinesulfonamide], the pIC50 against Nav 1.7 (in-vitro Nav 1.7 PX data) is 7.47.

`COc1ccc(-c2cccnc2F)cc1-n1c(=O)ccc2cc(S(=O)(=O)Nc3ccon3)ccc21` [Example 495, 1-(5-(2-fluoro-3-pyridinyl)-2-methoxyphenyl)-N-3-isoxazolyl-2-oxo-1,2-dihydro-6-quinolinesulfonamide] showed a pIC50 against Nav 1.7 of 5.61.

Regarding `COc1cc(-c2cc(C)ccc2Cl)c(F)cc1-n1c(=O)ccc2cc(S(=O)(=O)Nc3ccon3)ccc21` [Example 716, 1-(2′-chloro-2-fluoro-5-methoxy-5′-methyl-4-biphenylyl)-N-3-isoxazolyl-2-oxo-1,2-dihydro-6-quinolinesulfonamide], the pIC50 on Nav 1.7 (in-vitro Nav 1.7 PX data) is 8.22.

At Nav 1.7 (in-vitro Nav 1.7 PX data), `COc1cc(CC2C[C@@H]3CC[C@@H]2C3)c(F)cc1-n1c(=O)ccc2cc(S(=O)(=O)Nc3ccon3)ccc21` (stereo partly shown) [Example 1082] showed a pIC50 of 8.05.

With `COc1cc(-c2cnc(OC)c(Cl)c2)c(F)cc1-n1c(=O)ccc2cc(S(=O)(=O)Nc3cccc(F)n3)ccc21` (atropisomer, axis not shown; (P)) [Example 1162, (P)-1-(4-(5-chloro-6-methoxy-3-pyridinyl)-5-fluoro-2-methoxyphenyl)-N-(6-fluoro-2-pyridinyl)-2-oxo-1,2-dihydro-6-quinolinesulfonamide], the pIC50 on Nav 1.7 (in-vitro Nav 1.7 PX data, Table 4) was 7.92.

As for `COc1cc(-c2cc(F)cc(Cl)c2)c(F)cc1-n1c(=O)ccc2cc(S(=O)(=O)Nc3cnccn3)ccc21` (atropisomer, axis not shown; (P)) [Example 543, (P)-1-(3′-chloro-2,5′-difluoro-5-methoxy-4-biphenylyl)-2-oxo-N-2-pyrazinyl-1,2-dihydro-6-quinolinesulfonamide], the pIC50 on Nav 1.7 is 7.89.

`COc1cc(-c2ccc(Cl)c(C)c2)c(Cl)cc1-n1c(=O)ccc2cc(S(=O)(=O)Nc3ccncn3)ccc21` (atropisomer, axis not shown; (M)) [Example 368, (M)-1-(2,4′-dichloro-5-methoxy-3′-methyl-4-biphenylyl)-2-oxo-N-4-pyrimidinyl-1,2-dihydro-6-quinolinesulfonamide] had a pIC50 against Nav 1.7 (in-vitro PatchXpress (PX)) of 6.17.

`COc1cc(-c2cccc(OC(C)C)c2)ccc1-n1c(=O)ccc2cc(S(=O)(=O)Nc3ncccn3)ccc21` [Example 828, 1-(3-methoxy-3′-(1-methylethoxy)-4-biphenylyl)-2-oxo-N-2-pyrimidinyl-1,2-dihydro-6-quinolinesulfonamide] had a pIC50 against Nav 1.7 (in-vitro Nav 1.7 PX data) of 6.21.

Compound `COc1cc(C#CC(F)(F)F)c(F)cc1-n1c(=O)ccc2cc(S(=O)(=O)Nc3ccon3)ccc21` [Example 644, 1-(5-fluoro-2-methoxy-4-(3,3,3-trifluoro-1-PROPYN-1-yl)phenyl)-N-3-isoxazolyl-2-oxo-1,2-dihydro-6-quinolinesulfonamide] had a pIC50 against Nav 1.7 (in-vitro Nav 1.7 PX data) of 6.41.

At Nav 1.7 (in-vitro PatchXpress (PX)), `COc1cc(-c2ccc(C)c(C#N)c2)c(F)cc1-n1c(=O)ccc2cc(S(=O)(=O)Nc3ccon3)ccc21` (atropisomer, axis not shown; (M)) [Example 525, (M)-1-(3′-cyano-2-fluoro-5-methoxy-4′-methyl-4-biphenylyl)-N-3-isoxazolyl-2-oxo-1,2-dihydro-6-quinolinesulfonamide] had a pIC50 of 5.31.

In the case of `COc1cc(-c2ccc(Cl)c(C)c2)c(F)cc1-n1c(=O)ccc2cc(S(=O)(=O)Nc3cccnn3)ccc21` (atropisomer, axis not shown; (P)) [Example 695, (P)-1-(4′-chloro-2-fluoro-5-methoxy-3′-methyl-4-biphenylyl)-2-oxo-N-3-pyridazinyl-1,2-dihydro-6-quinolinesulfonamide], the pIC50 against Nav 1.7 (in-vitro Nav 1.7 PX data) was 7.92.

In turn, `COc1cc(-c2ccc(Cl)c(C)c2)c(F)cc1-n1c(=O)ccc2cc(S(=O)(=O)Nc3ncco3)ccc21` (atropisomer, axis not shown; (P)) [Example 694, (P)-1-(4′-chloro-2-fluoro-5-methoxy-3′-methyl-4-biphenylyl)-N-1,3-oxazol-2-yl-2-oxo-1,2-dihydro-6-quinolinesulfonamide] gave a negative-log IC50 (pIC50) against Nav 1.7 (in-vitro Nav 1.7 PX data) of 7.57.

As to `COc1cc(-c2cccc(C)c2)c(F)cc1-n1c(=O)ccc2cc(S(=O)(=O)Nc3ncccn3)ccc21` [Example 1107, 1-(2-fluoro-5-methoxy-3′-methyl-4-biphenylyl)-2-oxo-N-2-pyrimidinyl-1,2-dihydro-6-quinolinesulfonamide], the pIC50 at Nav 1.7 (in-vitro Nav 1.7 PX data) was 7.49.

`COc1ccc(C#CC2CCCC2)cc1-n1c(=O)ccc2cc(S(=O)(=O)Nc3ccon3)ccc21` [Example 1147, 1-(5-(cyclopentylethynyl)-2-methoxyphenyl)-N-3-isoxazolyl-2-oxo-1,2-dihydro-6-quinolinesulfonamide]: the pIC50 on Nav 1.7 was 6.92.

In the case of `COc1cc(-c2cccc(C)c2)ccc1-n1c(=O)ccc2cc(S(=O)(=O)Nc3cccnn3)ccc21` [Example 1120, 1-(3-methoxy-3′-methyl-4-biphenylyl)-2-oxo-N-3-pyridazinyl-1,2-dihydro-6-quinolinesulfonamide], on Nav 1.7 (in-vitro Nav 1.7 PX data), the pIC50 is 6.97.

Consider `CCc1cccc(-c2cc(OC)c(-n3c(=O)ccc4cc(S(=O)(=O)Nc5ccon5)ccc43)cc2F)c1` [Example 791, 1-(3′-ethyl-2-fluoro-5-methoxy-4-biphenylyl)-N-3-isoxazolyl-2-oxo-1,2-dihydro-6-quinolinesulfonamide], for which the pIC50 on Nav 1.7 (in-vitro Nav 1.7 PX data) was 8.05.

On to `COc1cc(C)cc(-c2ccc(-n3c(=O)ccc4cc(S(=O)(=O)Nc5ccon5)ccc43)c(OC)c2)c1` [Example 784, 1-(3,3′-dimethoxy-5′-methyl-4-biphenylyl)-N-3-isoxazolyl-2-oxo-1,2-dihydro-6-quinolinesulfonamide], for which the pIC50 at Nav 1.7 (in-vitro Nav 1.7 PX data) was 7.70.

`COc1cc(-c2cccc(F)c2)c(Cl)cc1-n1c(=O)ccc2cc(S(=O)(=O)Nc3ccon3)c(F)cc21` (atropisomer, axis not shown; (P)) [Example 545, (P)-1-(2-chloro-3′-fluoro-5-methoxy-4-biphenylyl)-7-fluoro-N-3-isoxazolyl-2-oxo-1,2-dihydro-6-quinolinesulfonamide] gave a negative logarithm of the IC50 (pIC50) against Nav 1.7 of 8.00.

With `COc1nc(O[C@H](C)C(F)(F)C(F)F)c(Cl)cc1-n1c(=O)ccc2cc(S(=O)(=O)Nc3ccon3)ccc21` [Example 1212, 1-(5-chloro-2-methoxy-6-(((1R)-2,2,3,3-tetrafluoro-1-methylpropyl)oxy)-3-pyridinyl)-N-3-isoxazolyl-2-oxo-1,2-dihydro-6-quinolinesulfonamide, 1-(5-chloro-2-methoxy-6-(((1S)-2,2,3,3-tetrafluoro-1-methylpropyl)oxy)-3-pyridinyl)-N-3-isoxazolyl-2-oxo-1,2-dihydro-6-quinolinesulfonamide], on Nav 1.7, the pIC50 was 6.87.

On Nav 1.7 (in-vitro Nav 1.7 PX data), `COc1cc(-c2ccc(C)cc2Cl)c(F)cc1-n1c(=O)ccc2cc(S(=O)(=O)Nc3ccon3)ccc21` [Example 725, 1-(2′-chloro-2-fluoro-5-methoxy-4′-methyl-4-biphenylyl)-N-3-isoxazolyl-2-oxo-1,2-dihydro-6-quinolinesulfonamide] had a pIC50 of 7.92.

Compound `COc1ccc(-c2cccc(F)c2)cc1-n1c(=O)ccc2cc(S(=O)(=O)Nc3ccon3)ccc21` [Example 482, 1-(3′-fluoro-4-methoxy-3-biphenylyl)-N-3-isoxazolyl-2-oxo-1,2-dihydro-6-quinolinesulfonamide] gave a pIC50 against Nav 1.7 of 7.10.

In turn, `COc1cc(-c2ccc(Cl)c(C)c2)c(F)cc1-n1c(=O)c(OC)cc2cc(S(=O)(=O)Nc3ccon3)ccc21` (atropisomer, axis not shown; (P)) [Example 414, (P)-1-(4′-chloro-2-fluoro-5-methoxy-3′-methyl-[1,1′-biphenyl]-4-yl)-N-(isoxazol-3-yl)-3-methoxy-2-oxo-1,2-dihydroquinoline-6-sulfonamide] showed a pIC50 against Nav 1.7 of 7.89.
